One may read the IC50 as the concentration that gives 50% inhibition.

Consider 3 molecules from ChEMBL document CHEMBL1153681 (Bioorg Med Chem Lett, 1992).

A short description of assay [1]: Ratio of the ability to inhibit electrically induced contractions in the mouse vas deferens (MVD) to that of the guinea pig ileum (GPI). It counts as functional.
For assay [2], the target named is Delta-type opioid receptor (Rattus norvegicus, UniProt P33533). Kind of assay: Evaluated for its affinity towards Opioid receptor delta 1 in rat fore brain by displacing the radioligand [3H]DPDPE.
A further assay addresses Mu-type opioid receptor (Rattus norvegicus, UniProt P33535).
The next assay is filed under the species Cavia porcellus. Nature of the assay: Evaluated for its ability to inhibit electrically induced contractions in the guinea pig ileum (GPI). The class given is functional, organism-based.
The species entered for another assay is Mus musculus. Nature of the assay: Evaluated for its ability to inhibit electrically induced contractions in the mouse vas deferens (MVD). The class given is functional, organism-based.

Mu-type opioid receptor, sequence (P33535 whole entry): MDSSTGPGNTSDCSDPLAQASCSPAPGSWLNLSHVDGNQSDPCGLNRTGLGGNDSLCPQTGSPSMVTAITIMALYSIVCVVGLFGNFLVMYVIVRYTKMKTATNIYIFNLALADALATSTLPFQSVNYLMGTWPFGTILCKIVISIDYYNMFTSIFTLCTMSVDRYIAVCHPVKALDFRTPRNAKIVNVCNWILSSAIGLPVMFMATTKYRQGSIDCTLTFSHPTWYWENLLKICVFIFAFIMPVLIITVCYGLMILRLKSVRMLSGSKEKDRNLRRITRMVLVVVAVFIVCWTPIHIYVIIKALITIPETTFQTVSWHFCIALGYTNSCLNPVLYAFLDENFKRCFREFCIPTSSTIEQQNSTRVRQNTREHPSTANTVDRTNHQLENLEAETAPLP
Delta-type opioid receptor, sequence (P33533 whole entry): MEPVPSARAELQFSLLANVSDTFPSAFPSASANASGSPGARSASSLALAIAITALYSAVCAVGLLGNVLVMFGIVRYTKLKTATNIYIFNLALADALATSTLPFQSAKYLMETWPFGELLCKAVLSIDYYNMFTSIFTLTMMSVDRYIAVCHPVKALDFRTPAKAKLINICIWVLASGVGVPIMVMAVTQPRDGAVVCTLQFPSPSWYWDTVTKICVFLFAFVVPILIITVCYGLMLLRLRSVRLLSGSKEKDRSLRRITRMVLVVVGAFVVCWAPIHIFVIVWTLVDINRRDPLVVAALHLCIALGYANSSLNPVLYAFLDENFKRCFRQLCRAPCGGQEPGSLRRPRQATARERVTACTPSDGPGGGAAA
Description for Mu-type opioid receptor: Evaluated for its affinity towards Opioid receptor mu 1 in rat forebrain by displacing the radioligand [3H]sufentanil.

For `C[C@H](NC(=O)[C@@H](N)Cc1ccc(O)cc1)C(=O)N[C@H]1Cc2ccccc2CN(CC(=O)N[C@@H](Cc2ccc(O)cc2)C(=O)N2CCC[C@H]2C(=O)N[C@@H](CO)C(N)=O)C1=O`, the Ratio in assay [1] was 0.06. The IC50 in assay [2] stood at 17.4 nM; at Mu-type opioid receptor it was 11 nM; in the assay filed under Cavia porcellus, 10.8 nM; in the assay listed under Mus musculus it was 0.66 nM.

Turning to `CC(C)[C@H](NC(=O)[C@H](CC(=O)O)NC(=O)[C@H](Cc1ccccc1)NC(=O)[C@@H](C)NC(=O)[C@@H](N)Cc1ccc(O)cc1)C(=O)N[C@H](C(=O)NCC(N)=O)C(C)C` [DELTORPHIN C], the Ratio result in assay [1] is “<=0.0001”. Also, the IC50 in the assay filed under Cavia porcellus is at least 3000 nM; in the assay filed under Mus musculus it was 0.32 nM.

Consider `C[C@@H](NC(=O)[C@@H](N)Cc1ccc(O)cc1)C(=O)N[C@@H](Cc1ccccc1)C(=O)NCC(=O)N[C@@H](Cc1ccc(O)cc1)C(=O)N1CCC[C@H]1C(=O)N[C@@H](CO)C(N)=O` [DERMORPHIN], for which the IC50 amounted to 2.4 nM against Mu-type opioid receptor and 1.06 nM in the assay listed under Cavia porcellus.
